Reference: patent US20120115845A1, “THERAPEUTIC AGENTS” (priority 2007, published 2012)

These molecules were tested against T1, human GHS receptor (Homo sapiens, UniProt Q92847) (assay: h bind IC50 (binding assay, Table 1)). Settings: human receptor; Table 1.
T1 sequence (Q92847 whole entry): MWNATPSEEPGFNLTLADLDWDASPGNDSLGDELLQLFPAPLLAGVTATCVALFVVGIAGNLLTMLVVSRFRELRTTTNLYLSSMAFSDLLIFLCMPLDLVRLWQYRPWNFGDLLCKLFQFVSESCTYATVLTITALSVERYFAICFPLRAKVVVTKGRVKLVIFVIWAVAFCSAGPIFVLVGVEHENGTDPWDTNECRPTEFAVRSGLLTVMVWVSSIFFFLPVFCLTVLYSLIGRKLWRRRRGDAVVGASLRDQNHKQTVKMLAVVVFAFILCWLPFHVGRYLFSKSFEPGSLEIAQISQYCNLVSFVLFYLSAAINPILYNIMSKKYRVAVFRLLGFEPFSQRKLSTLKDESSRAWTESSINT

| IC50 [nM] | Structure (SMILES) |
| --- | --- |
| 109 | CN1CCC(S(=O)(=O)c2ccc3nc(NC(=O)NC(=O)c4ccccc4Cl)sc3c2)C1 (centres unmarked) [Example 167, 2-Chloro-N-[[6-(1-methylpyrroldin-3-yl)sulfonylbenzothazol-2-yl]carbamoyl]benzamide] |
| 1080 | CCN(CCOC)CCS(=O)(=O)c1ccc2nc(NC(=O)NC(=O)c3ccccc3Cl)sc2c1 [Example 15, 2-Chloro-N-[[6-[2-(ethyl-(2-methoxyethyl)amino)ethylsulfonyl]benzothiazol-2-yl]carbamoyl]benzamide] |
| 78.8 | O=C(NC(=O)c1ccccc1Cl)Nc1nc2ccc(S(=O)(=O)CCCN3CCC3)cc2s1 [Example 147, N-[[6-[3-(Azetidin-1-yl)propylsulfonyl]benzothiazol-2-yl]carbamoyl]-2-chloro-benzamide] |
| 179 | CCC(C)NCCS(=O)(=O)c1ccc2nc(NC(=O)NC(=O)c3ccccc3Cl)sc2c1 (centres unmarked) [Example 12, N-[[6-[2-(Butan-2-ylamino)ethylsulfonyl]benzothiazol-2-yl]carbamoyl]-2-chloro-benzamide] |
| 104 | O=C(NC(=O)c1ccccc1Cl)Nc1nc2ccc(S(=O)(=O)CCCN3CCC(F)(F)CC3)cc2s1 [Example 158, 2-Chloro-N-[[6-[3-(4,4-difluoro-1-piperidyl)propylsulfonyl]benzothiazol-2-yl]carbamoyl]benzamide] |
| 59.8 | CC(C)NCCCS(=O)(=O)c1ccc2nc(NC(=O)NC(=O)c3ccccc3Cl)sc2c1 [Example 145, 2-Chloro-N-[[6-[3-(propan-2-ylamino)propylsulfonyl]benzothiazol-2-yl]carbamoyl]benzamide] |
| 670 | CCN(CC)CCS(=O)(=O)c1ccc2nc(NC(=O)NC(=O)c3ccccc3Cl)sc2c1 [Example 7, 2-Chloro-N-[[6-(2-diethylaminoethylsulfonyl)benzothiazol-2-yl]carbamoyl]benzamide] |
| 219 | C=CS(=O)(=O)c1ccc2nc(NC(=O)NC(=O)c3ccccc3Cl)sc2c1 [Example 129, 2-Chloro-N-[(6-ethenylsulfonylbenzothiazol-2-yl)carbamoyl]benzamide] |
| 201 | O=C(NC(=O)c1ccccc1Cl)Nc1nc2ccc(S(=O)(=O)C3CCN(CC4CC4)C3)cc2s1 (centres unmarked) [Example 144, 2-Chloro-N-[[6-[1-(cyclopropylmethyl)pyrrolidin-3-yl]sulfonylbenzothiazol-2-yl]carbamoyl]benzamide] |
| 52.2 | O=C(NC(=O)c1ccccc1Cl)Nc1nc2ccc(S(=O)(=O)CCCN3CCCC3)cc2s1 [Example 149, 2-Chloro-N-[[6-(3-pyrrolidin-1-ylpropylsulfonyl)benzothiazol-2-yl]carbamoyl]benzamide] |
| 184 | CC(NCCS(=O)(=O)c1ccc2nc(NC(=O)NC(=O)c3ccccc3Cl)sc2c1)c1ccccc1 (centres unmarked) [Example 20, 2-Chloro-N-[[6-[2-(1-phenylethylamino)ethylsulfonyl]benzothiazol-2-yl]carbamoyl]benzamide] |
| 484 | O=C(NC(=O)c1ccccc1Cl)Nc1nc2ccc(S(=O)(=O)C3CCCN(CC4CC4)C3)cc2s1 (centres unmarked) [Example 143, 2-Chloro-N-[[6-[[1-(cyclopropylmethyl)-3-piperidyl]sulfonyl]benzothiazol-2-yl]carbamoyl]benzamide] |
| 78.5 | O=C(NC(=O)c1ccccc1Cl)Nc1nc2ccc(S(=O)(=O)CCCN3CCC(F)C3)cc2s1 (centres unmarked) [Example 157, 2-Chloro-N-[[6-[3-(3-fluoropyrrolidin-1-yl)propylsulfonyl]benzothiazol-2-yl]carbamoyl]benzamide] |
| 29.6 | O=C(NC(=O)c1ccccc1Cl)Nc1nc2ccc(S(=O)(=O)CCCN3CCC(O)C3)cc2s1 (centres unmarked) [Example 160, 2-Chloro-N-[[6-[3-(3-hydroxypyrrolidin-1-yl)propylsulfonyl]benzothiazol-2-yl]carbamoyl]benzamide] |
| 247 | COCCN(C)CCS(=O)(=O)c1ccc2nc(NC(=O)NC(=O)c3ccccc3Cl)sc2c1 [Example 9, 2-Chloro-N-[[6-[2-(2-methoxyethyl-methyl-amino)ethylsulfonyl]benzothiazol-2-yl]carbamoyl]benzamide] |
| 117 | O=C(NC(=O)c1ccccc1Cl)Nc1nc2ccc(S(=O)(=O)CCCN3CCC(F)(F)C3)cc2s1 [Example 154, 2-Chloro-N-[[6-[3-(3,3-difluoropyrrolidin-1-yl)propylsulfonyl]benzothiazol-2-yl]carbamoyl]benzamide] |
| 64 | O=C(NC(=O)c1ccccc1Cl)Nc1nc2ccc(S(=O)(=O)C[C@H]3CCCN3CC3CC3)cc2s1 [Example 156, 2-Chloro-N-[[6-[[(2R)-1-(cyclopropylmethyl)pyrrolidin-2-yl]methylsulfonyl]benzothiazol-2-yl]carbamoyl]benzamide] |
| 1.12 | COc1cc(Cl)c(C(=O)NC(=O)Nc2nc3ccc(S(=O)(=O)C4CCNCC4)cc3s2)cc1-n1cccn1 [Example 263, 2-chloro-4-methoxy-N-(6-(piperidin-4-ylsulfonyl)benzo [d]thiazol-2-ylcarbamoyl) 5-(1H-pyrazol-1-yl)benzamide] |
| 151 | CN1CCC[C@@H]1CS(=O)(=O)c1ccc2nc(NC(=O)NC(=O)c3ccccc3Cl)sc2c1 [Example 169, 2-Chloro-N-[[6-[[(2R)-1-methylpyrrolidin-2-yl]methylsulfonyl]benzothiazol-2-yl]carbamoyl]benzamide] |
| 34.1 | CC(C)N1CC(S(=O)(=O)c2ccc3nc(NC(=O)NC(=O)c4ccccc4Cl)sc3c2)C1 [Example 186, 2-Chloro-N-[[6-(1-propan-2-ylazetidin-3-yl)sulfonylbenzothiazol-2-yl]carbamoyl]benzamide] |
| 400 | O=C(NC(=O)c1ccccc1Cl)Nc1nc2ccc(S(=O)(=O)CCOCCO)cc2s1 [Example 121, 2-Chloro-N-[[6-[2-(2-hydroxyethoxy)ethylsulfonyl]benzothiazol-2-yl]carbamoyl]benzamide] |

| Structure (SMILES) | IC50 [nM] |
| --- | --- |
| CN(C)C1CC(Oc2ccc(Cl)c(C(=O)NC(=O)Nc3nc4ccc(S(C)(=O)=O)cc4s3)c2)C1 (centres unmarked) [Example 269, 2-Chloro-5-(3-dimethylaminocyclobutoxy)-N-[(6-methylsulfonyl-1,3-benzothiazol-2-yl)carbamoyl]benzamide] | 8730 |
| O=C(NC(=O)c1ccccc1Cl)Nc1nc2ccc(S(=O)(=O)CCN3CCCC3)cc2s1 [Example 6, 2-Chloro-N-[[6-(2-pyrrolidin-1-ylethylsulfonyl)benzothiazol-2-yl]carbamoyl]benzamide] | 44.4 |
| CC(C)NCCS(=O)(=O)c1ccc2nc(NC(=O)NC(=O)c3cc(-n4cccc4)ccc3Cl)sc2c1 [Example 82, 2-Chloro-N-[[6-[2-(propan-2-ylamino)ethylsulfonyl]benzothiazol-2-yl]carbamoyl]-5-pyrrol-1-yl-benzamide] | 1.6 |
| O=C(NC(=O)c1ccccc1Cl)Nc1nc2ccc(S(=O)(=O)CCNCCF)cc2s1 [Example 31, 2-Chloro-N-[[6-[2-(2-fluoroethylamino)ethylsulfonyl]benzothiazol-2-yl]carbamoyl]benzamide] | 54.6 |
| CC(C)NCCCS(=O)(=O)c1ccc2nc(NC(=O)NC(=O)c3cc(-n4cccc4)ccc3Cl)sc2c1 [Example 75, 2-Chloro-N-[[6-[3-(propan-2-ylamino)propylsulfonyl]benzothiazol-2-yl]carbamoyl]-5-pyrrol-1-yl-benzamide] | 7.4 |
| CN1CCN(CCS(=O)(=O)c2ccc3nc(NC(=O)NC(=O)c4ccccc4Cl)sc3c2)CC1 [Example 23, 2-Chloro-N-[[6-[2-(4-methylpiperazin-1-yl)ethylsulfonyl]benzothiazol-2-yl]carbamoyl]benzamide] | 82.7 |
| CN(CCO)CCS(=O)(=O)c1ccc2nc(NC(=O)NC(=O)c3ccccc3Cl)sc2c1 [Example 11, 2-Chloro-N-[[6-[2-(2-hydroxyethyl-methyl-amino)ethylsulfonyl]benzothiazol-2-yl]carbamoyl]benzamide] | 347 |
| O=C(NC(=O)c1cc(-n2cccc2)ccc1Cl)Nc1nc2ccc(S(=O)(=O)CCN3CCC3)cc2s1 [Example 81, N-[[6-[2-(Azetidin-1-yl)ethylsulfonyl]benzothiazol-2-yl]carbamoyl]-2-chloro-5-pyrrol-1-yl-benzamide] | 2 |

The molecules below were run against T1, human GHS receptor (assay: Ghrelin IP1 agonist assay (IP1 HTRF)). Settings: 2 h; agonist effect as % maximal effect of GHRP-6 (5 μM); read-out: h IP1 ag %.
Format: cell-based
Set-up: expressed in transfected cells; host or cells: HEK293s
Method: In HEK293s cells stably expressing human GHS receptor (In-house), agonist activity was assessed by measuring intracellular myo-Inositol 1 phosphate (IP1) using the IP1 HTRF assay kit (Cisbio International).
Cells were harvested using accutase (Sigma), spun down at 1000 rpm for 5 minutes and resuspended in stimulation buffer (as above) containing 0.02% fatty acid free BSA at a density of 1.43E6cells/ml.
Agonist effect of the compound was expressed as % maximal effect of GHRP-6 (5 μM: Bachem). Sigmoidal curves were fitted by Origin 7.5 Client and EC50 values determined.

| Emax [%] | Structure (SMILES) |
| --- | --- |
| 38.4 | CS(=O)(=O)c1ccc2nc(NC(=O)NC(=O)c3ccccc3-c3ccc(F)cc3)sc2c1 [Example 126, 2-(4-Fluorophenyl)-N-[(6-methylsulfonylbenzothiazol-2-yl)carbamoyl]benzamide] |
| 31.8 | CS(=O)(=O)c1ccc2nc(NC(=O)NC(=O)c3ccccc3-c3ccccc3F)sc2c1 [Example 125, 2-(2-Fluorophenyl)-N-[(6-methylsulfonylbenzothiazol-2-yl)carbamoyl]benzamide] |
| 38.4 | CS(=O)(=O)c1ccc2nc(NC(=O)NC(=O)c3c(F)cccc3F)sc2c1 [Example 112, 2,6-Difluoro-N-[(6-methylsulfonylbenzothiazol-2-yl)carbamoyl]benzamide] |
| 29.5 | NC(=O)COCCS(=O)(=O)c1ccc2nc(NC(=O)NC(=O)c3ccccc3Cl)sc2c1 [Example 120, N-[[6-[2-(Carbamoylmethoxy)ethylsulfonyl]benzothiazol-2-yl]carbamoyl]-2-chloro-benzamide] |

Same assay, conditions: HEK293s cells stably expressing human GHS receptor; 2 hours at 37° C.; read-out: h IP1 ag EC50

| EC50 [nM] | Structure (SMILES) |
| --- | --- |
| 1030 | CS(=O)(=O)c1ccc2nc(NC(=O)NC(=O)c3ccccc3-c3ccc(F)cc3)sc2c1 [Example 126, 2-(4-Fluorophenyl)-N-[(6-methylsulfonylbenzothiazol-2-yl)carbamoyl]benzamide] |
| 252 | CS(=O)(=O)c1ccc2nc(NC(=O)NC(=O)c3ccccc3-c3ccccc3F)sc2c1 [Example 125, 2-(2-Fluorophenyl)-N-[(6-methylsulfonylbenzothiazol-2-yl)carbamoyl]benzamide] |
| 142 | CS(=O)(=O)c1ccc2nc(NC(=O)NC(=O)c3c(F)cccc3F)sc2c1 [Example 112, 2,6-Difluoro-N-[(6-methylsulfonylbenzothiazol-2-yl)carbamoyl]benzamide] |
| 211 | NC(=O)COCCS(=O)(=O)c1ccc2nc(NC(=O)NC(=O)c3ccccc3Cl)sc2c1 [Example 120, N-[[6-[2-(Carbamoylmethoxy)ethylsulfonyl]benzothiazol-2-yl]carbamoyl]-2-chloro-benzamide] |

Same assay, conditions: agonist effect as % maximal effect of GHRP-6 (5 μM)

| h IP1 ag % [%] | Structure (SMILES) |
| --- | --- |
| 18.23 | CCS(=O)(=O)c1ccccc1C(=O)NC(=O)Nc1nc2ccc(S(C)(=O)=O)cc2s1 [Example 135, 2-Ethyl sulfonyl-N-[(6-methylsulfonylbenzothiazol-2-yl)carbamoyl]benzamide] |
